Among the data in ChEMBL document CHEMBL1152243, “Preliminary SAR studies on non-apamin-displacing 4-(aminomethylaryl)pyrrazolopyrimidine K(Ca) channel blockers” (Bioorg Med Chem Lett, 2008) are IC50, inhibition and Activity values, retold here.

As a reminder, the IC50 is the concentration at which inhibition is half-maximal. As a reminder, the inhibition is the relative decrease from the control value, in per cent.

Activity calls are given as the source filed them. The calls are words filed in the database; no cut-off is given here.

What all share (assay type): cell-based
Assay [1] concerns the target T1, Small conductance calcium-activated potassium channel protein 3 (Homo sapiens, UniProt Q9UGI6). The assay is described as follows: Inhibition of Kca2.3 channel expressed in HEK293 cells by thallium flux assay.
Assay [2] addresses Small conductance calcium-activated potassium channel protein 1 (Homo sapiens, UniProt Q92952). Kind of assay: Inhibition of Kca2.1 channel expressed in HEK293 cells by thallium flux assay.
Assay [3] addresses T1, Small conductance calcium-activated potassium channel protein 3. The assay is described as follows: Inhibition of Kca2.3 channel expressed in HEK293 cells at 30 uM by thallium flux assay.
Assay [4] shares this target. Kind of assay: Inhibition of Kca2.3 channel expressed in HEK293 cells by electrophysiology assay.
Assay [5] shares this target. The assay is described as follows: Displacement of [125I]apamin from Kca2.3 channel expressed in HEK293 cells by scintillation proximity assay. For orientation: Displacement assays read how much labelled ligand stays bound in the presence of the test substance.
Assay [6] addresses Small conductance calcium-activated potassium channel protein 2 (Homo sapiens, UniProt Q9H2S1). The assay is described as follows: Inhibition of Kca2.2 channel expressed in HEK293 cells by thallium flux assay.

T1 sequence (Q9UGI6 whole entry): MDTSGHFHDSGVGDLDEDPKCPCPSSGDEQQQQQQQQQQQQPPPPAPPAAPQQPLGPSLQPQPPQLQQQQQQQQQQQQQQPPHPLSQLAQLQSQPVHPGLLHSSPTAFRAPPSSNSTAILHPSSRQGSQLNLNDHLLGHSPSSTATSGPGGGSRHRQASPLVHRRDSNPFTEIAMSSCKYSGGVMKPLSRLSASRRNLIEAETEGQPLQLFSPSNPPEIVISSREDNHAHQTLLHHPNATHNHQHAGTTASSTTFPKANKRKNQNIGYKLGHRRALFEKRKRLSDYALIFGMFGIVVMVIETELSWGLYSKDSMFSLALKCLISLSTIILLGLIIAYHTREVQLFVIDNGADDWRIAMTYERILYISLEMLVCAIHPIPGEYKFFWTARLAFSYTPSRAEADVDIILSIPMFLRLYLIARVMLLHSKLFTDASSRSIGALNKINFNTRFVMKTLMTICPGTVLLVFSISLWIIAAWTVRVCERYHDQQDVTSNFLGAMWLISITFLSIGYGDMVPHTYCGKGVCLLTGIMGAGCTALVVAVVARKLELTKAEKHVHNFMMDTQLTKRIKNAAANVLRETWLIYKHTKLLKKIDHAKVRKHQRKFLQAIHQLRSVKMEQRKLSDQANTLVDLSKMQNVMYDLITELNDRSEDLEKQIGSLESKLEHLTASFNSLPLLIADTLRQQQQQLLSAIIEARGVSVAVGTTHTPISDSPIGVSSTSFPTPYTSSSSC
Small conductance calcium-activated potassium channel protein 2, sequence (Q9H2S1 whole entry): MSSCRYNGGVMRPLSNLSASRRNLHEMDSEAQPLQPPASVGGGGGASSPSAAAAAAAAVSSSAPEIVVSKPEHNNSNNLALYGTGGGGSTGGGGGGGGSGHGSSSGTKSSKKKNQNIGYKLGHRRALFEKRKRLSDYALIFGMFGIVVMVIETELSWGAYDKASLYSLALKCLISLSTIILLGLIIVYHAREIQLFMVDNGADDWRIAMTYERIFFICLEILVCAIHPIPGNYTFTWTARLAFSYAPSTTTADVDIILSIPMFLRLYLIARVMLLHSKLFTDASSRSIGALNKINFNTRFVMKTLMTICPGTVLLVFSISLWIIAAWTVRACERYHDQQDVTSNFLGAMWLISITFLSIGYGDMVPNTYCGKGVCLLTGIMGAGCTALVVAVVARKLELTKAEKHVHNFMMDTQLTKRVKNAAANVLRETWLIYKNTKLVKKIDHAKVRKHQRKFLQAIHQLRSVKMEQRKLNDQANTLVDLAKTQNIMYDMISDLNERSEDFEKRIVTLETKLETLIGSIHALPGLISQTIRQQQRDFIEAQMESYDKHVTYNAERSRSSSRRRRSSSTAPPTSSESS
Small conductance calcium-activated potassium channel protein 1, sequence (Q92952 whole entry): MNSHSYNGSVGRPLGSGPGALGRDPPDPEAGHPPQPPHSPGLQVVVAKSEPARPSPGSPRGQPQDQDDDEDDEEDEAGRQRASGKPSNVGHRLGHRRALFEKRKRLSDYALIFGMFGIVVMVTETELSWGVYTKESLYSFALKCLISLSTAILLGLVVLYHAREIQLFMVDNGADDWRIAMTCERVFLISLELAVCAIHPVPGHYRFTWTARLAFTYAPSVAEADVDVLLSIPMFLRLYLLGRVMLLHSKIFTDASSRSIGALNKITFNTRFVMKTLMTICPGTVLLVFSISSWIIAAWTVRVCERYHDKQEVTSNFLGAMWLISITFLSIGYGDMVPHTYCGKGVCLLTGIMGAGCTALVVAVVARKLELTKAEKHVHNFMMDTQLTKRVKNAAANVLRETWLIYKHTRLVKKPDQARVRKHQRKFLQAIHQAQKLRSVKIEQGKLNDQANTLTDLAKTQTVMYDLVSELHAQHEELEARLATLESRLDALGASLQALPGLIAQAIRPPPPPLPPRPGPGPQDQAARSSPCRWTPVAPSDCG

With `Clc1cc(NCc2cccs2)n2nccc2n1`, the IC50 in assay [1] came to 0.35 µM; in assay [2], 300 nM; in assay [4], 580 nM; in assay [6], 530 nM. In addition, the inhibition in assay [3] came out at 105%. Besides, the result in assay [5] was inactive.
For `Clc1cc(NC(Cc2ccccc2)c2ccccc2)n2nccc2n1` (stereo unspecified), the IC50 in assay [1] came to 7.5 µM.
In the case of `FC(F)(F)c1cccc(CNc2cc(Cl)nc3ccnn23)c1`, the half-inhibitory concentration (IC50) in assay [1] worked out at 14.6 µM. Also, in assay [3], the inhibition is 80%.
On to `FC(F)(F)c1ccccc1CNc1cc(Cl)nc2ccnn12`, for which the IC50 in assay [1] is over 30 µM. In addition, in assay [3], the inhibition was found to be 50%.
For `C[C@H](Nc1cc(Cl)nc2ccnn12)c1ccccc1`, in assay [1], the outcome was inactive.
For `Clc1cc(NCc2ccc(Cl)c(Cl)c2)n2nccc2n1`, the IC50 in assay [1] is over 30 µM. For the same molecule, in assay [3], the inhibition worked out at 25%.
The matching figures for `COc1ccccc1CNc1cc(Cl)nc2ccnn12`: 15.9 µM and 74%.
The matching figures for `Cc1ccc(CNc2cc(Cl)nc3ccnn23)cc1`: over 30 µM and 46%.
The corresponding values for `Clc1cc(Cl)cc(CNc2cc(Cl)nc3ccnn23)c1` are over 30 µM and 43%.
`Clc1ccc(CNc2cc(Cl)nc3ccnn23)cc1`: in assay [1], the IC50 was over 30 µM. The inhibition in assay [3] came out at 30%.
As to `Clc1cc(NCc2ccccc2Cl)n2nccc2n1`, in assay [1], the IC50 was found to be 19.1 µM. The inhibition in assay [3] was found to be 62%.
On to `FC(F)(F)Oc1ccc(CNc2cc(Cl)nc3ccnn23)cc1`, for which the 50% inhibitory concentration (IC50) in assay [1] is 15.4 µM. Also, the inhibition in assay [3] worked out at 62%.
With `Cc1ccccc1CNc1cc(Cl)nc2ccnn12`, the IC50 in assay [1] is 14.6 µM. In assay [3], the inhibition was 75%.
The matching figures for `FC(F)(F)Oc1ccccc1CNc1cc(Cl)nc2ccnn12`: 10 µM and 87%.
The matching figures for `FC(F)(F)c1ccc(CNc2cc(Cl)nc3ccnn23)cc1`: over 30 µM and 43%.
Regarding `FC(F)(F)Oc1cccc(CNc2cc(Cl)nc3ccnn23)c1`, the half-maximal inhibitory concentration (IC50) in assay [1] came out at 11 µM. Also, in assay [3], the inhibition was 71%.
The corresponding values for `Clc1cccc(CNc2cc(Cl)nc3ccnn23)c1` are 5.2 µM and 113%.
`Clc1cc(NCc2ccncc2)n2nccc2n1`: in assay [1], the result was inactive.
For the molecule `Clc1cc(NCc2ccccc2)n2nccc2n1`, the IC50 in assay [1] is 1.1 µM; in assay [2], 1190 nM; in assay [4], 1600 nM; in assay [6], 1100 nM. Moreover, the inhibition in assay [3] came out at 113%.
Regarding `O=[N+]([O-])c1cccc(CNc2cc(Cl)nc3ccnn23)c1`, the IC50 in assay [1] came out at 7.9 µM. Also, the inhibition in assay [3] stood at 96%.
The corresponding values for `Clc1cc(NCc2ccc(Oc3ccccc3)cc2)n2nccc2n1` are over 30 µM and 23%.
For `O=[N+]([O-])c1ccc(CNc2cc(Cl)nc3ccnn23)cc1`, the IC50 in assay [1] is over 30 µM. In assay [3], the inhibition was determined as 25%.
The corresponding values for `Cc1cccc(CNc2cc(Cl)nc3ccnn23)c1` are 10.7 µM and 91%.
Turning to `C[C@@H](Nc1cc(Cl)nc2ccnn12)c1ccccc1`, in assay [1], the IC50 was determined as 1 µM.
